Laboratory results from PubChem BioAssay (NCI).
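Values below derive from 48-hour exposures of cells grown in 96-well plates, with endpoints linearly interpolated between the two concentrations bracketing the appropriate inhibition level. GI50 marks 50% less growth. The concentration for full growth arrest is given as TGI.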

Legend:
Assay in all cases: NCI anticancer screen, dose series, 48 h
A498 renal = test system: A498 renal
OVCAR-4 ovarian = test system: OVCAR-4 ovarian
PC-3 prostate = test system: PC-3 prostate
HCT-116 colon = test system: HCT-116 colon
MDA-MB-231 breast = test system: MDA-MB-231 breast
MDA-MB-435 = test system: MDA-MB-435
SF-295 CNS = test system: SF-295 CNS
HS 578T breast = test system: HS 578T breast
NCI-H460 lung = test system: NCI-H460 lung
SR leukemia = test system: SR leukemia
HOP-62 NSCLC = test system: HOP-62 NSCLC
K-562 leukemia = test system: K-562 leukemia
U251 CNS = test system: U251 CNS
SK-OV-3 ovarian = test system: SK-OV-3 ovarian
HT29 colon = test system: HT29 colon
HCC-2998 colon = test system: HCC-2998 colon
ACHN renal = test system: ACHN renal
RPMI-8226 leukemia = test system: RPMI-8226 leukemia
HOP-92 NSCLC = test system: HOP-92 NSCLC
SF-268 CNS = test system: SF-268 CNS
BT-549 breast = test system: BT-549 breast
COLO 205 colon = test system: COLO 205 colon
SW-620 colon = test system: SW-620 colon
CCRF-CEM leukemia = test system: CCRF-CEM leukemia
MALME-3M melanoma = test system: MALME-3M melanoma
UACC-62 melanoma = test system: UACC-62 melanoma
MCF7 breast = test system: MCF7 breast
IGROV1 ovarian = test system: IGROV1 ovarian
SNB-19 CNS = test system: SNB-19 CNS
KM12 colon = test system: KM12 colon
OVCAR-3 ovarian = test system: OVCAR-3 ovarian
OVCAR-8 ovarian = test system: OVCAR-8 ovarian
UO-31 renal = test system: UO-31 renal
M14 melanoma = test system: M14 melanoma
OVCAR-5 ovarian = test system: OVCAR-5 ovarian
786-0 renal = test system: 786-0 renal
SK-MEL-5 melanoma = test system: SK-MEL-5 melanoma
A549 NSCLC = test system: A549 NSCLC
NCI-H226 lung = test system: NCI-H226 lung
HL-60(TB) leukemia = test system: HL-60(TB) leukemia
HCT-15 colon = test system: HCT-15 colon
NCI-H522 lung = test system: NCI-H522 lung
SN12C renal = test system: SN12C renal
EKVX NSCLC = test system: EKVX NSCLC
RXF 393 renal = test system: RXF 393 renal
SK-MEL-28 melanoma = test system: SK-MEL-28 melanoma
MOLT-4 leukemia = test system: MOLT-4 leukemia
SK-MEL-2 melanoma = test system: SK-MEL-2 melanoma
LOX IMVI melanoma = test system: LOX IMVI melanoma
SF-539 CNS = test system: SF-539 CNS
NCI-H23 lung = test system: NCI-H23 lung
DU-145 prostate = test system: DU-145 prostate
T-47D breast = test system: T-47D breast
TK-10 renal = test system: TK-10 renal

Q: Which results are given for `Cc1c(Cl)cccc1NC(=O)c1sc2nc3c(cc2c1N)CCCCC3`?
A: GI50 (A498 renal): 331 nM; TGI (A498 renal): 19300 nM; GI50 (OVCAR-4 ovarian): 5280 nM; TGI (OVCAR-4 ovarian): > 50000 nM; GI50 (PC-3 prostate): 307 nM; TGI (PC-3 prostate): 17900 nM; GI50 (HCT-116 colon): 196 nM; TGI (HCT-116 colon): > 50000 nM; GI50 (MDA-MB-231 breast): 827 nM; TGI (MDA-MB-231 breast): > 50000 nM; GI50 (MDA-MB-435): 104 nM; TGI (MDA-MB-435): 317 nM; GI50 (SF-295 CNS): 170 nM; TGI (SF-295 CNS): 10000 nM; GI50 (HS 578T breast): 227 nM; TGI (HS 578T breast): > 50000 nM; GI50 (NCI-H460 lung): 234 nM; TGI (NCI-H460 lung): 8000 nM; GI50 (SR leukemia): 174 nM; TGI (SR leukemia): > 50000 nM; GI50 (HOP-62 NSCLC): 411 nM; TGI (HOP-62 NSCLC): 45300 nM; GI50 (K-562 leukemia): 166 nM; TGI (K-562 leukemia): > 50000 nM; GI50 (U251 CNS): 281 nM; TGI (U251 CNS): 15800 nM; GI50 (SK-OV-3 ovarian): 230 nM; TGI (SK-OV-3 ovarian): 29900 nM; GI50 (HT29 colon): 186 nM; TGI (HT29 colon): 5020 nM; GI50 (HCC-2998 colon): 1760 nM; TGI (HCC-2998 colon): > 50000 nM; GI50 (ACHN renal): 449 nM; TGI (ACHN renal): > 50000 nM; GI50 (RPMI-8226 leukemia): 434 nM; TGI (RPMI-8226 leukemia): > 50000 nM; GI50 (HOP-92 NSCLC): 266 nM; TGI (HOP-92 NSCLC): 19200 nM; GI50 (SF-268 CNS): 426 nM; TGI (SF-268 CNS): > 50000 nM; GI50 (BT-549 breast): 252 nM; TGI (BT-549 breast): > 50000 nM; GI50 (COLO 205 colon): 596 nM; TGI (COLO 205 colon): 13200 nM; GI50 (SW-620 colon): 232 nM; TGI (SW-620 colon): > 50000 nM; GI50 (CCRF-CEM leukemia): 257 nM; TGI (CCRF-CEM leukemia): > 50000 nM; GI50 (MALME-3M melanoma): 357 nM; TGI (MALME-3M melanoma): 37700 nM; GI50 (UACC-62 melanoma): 233 nM; TGI (UACC-62 melanoma): > 50000 nM; GI50 (MCF7 breast): 105 nM; TGI (MCF7 breast): > 50000 nM; GI50 (IGROV1 ovarian): 376 nM; TGI (IGROV1 ovarian): > 50000 nM; GI50 (SNB-19 CNS): 298 nM; TGI (SNB-19 CNS): > 50000 nM; GI50 (KM12 colon): 236 nM; TGI (KM12 colon): > 50000 nM; GI50 (OVCAR-3 ovarian): 173 nM; TGI (OVCAR-3 ovarian): 1690 nM; GI50 (OVCAR-8 ovarian): 825 nM; TGI (OVCAR-8 ovarian): > 50000 nM; GI50 (UO-31 renal): 1650 nM; TGI (UO-31 renal): > 50000 nM; GI50 (M14 melanoma): 233 nM; TGI (M14 melanoma): > 50000 nM; GI50 (OVCAR-5 ovarian): 1330 nM; TGI (OVCAR-5 ovarian): > 50000 nM; GI50 (786-0 renal): 207 nM; TGI (786-0 renal): 14000 nM; GI50 (SK-MEL-5 melanoma): 263 nM; TGI (SK-MEL-5 melanoma): 48600 nM; GI50 (A549 NSCLC): 725 nM; TGI (A549 NSCLC): > 50000 nM; GI50 (NCI-H226 lung): 4680 nM; TGI (NCI-H226 lung): 34100 nM; GI50 (HL-60(TB) leukemia): 143 nM; TGI (HL-60(TB) leukemia): 484 nM; GI50 (HCT-15 colon): 195 nM; TGI (HCT-15 colon): > 50000 nM; GI50 (NCI-H522 lung): 187 nM; TGI (NCI-H522 lung): 42300 nM; GI50 (SN12C renal): 1440 nM; TGI (SN12C renal): > 50000 nM; GI50 (EKVX NSCLC): 316 nM; TGI (EKVX NSCLC): > 50000 nM; GI50 (RXF 393 renal): 217 nM; TGI (RXF 393 renal): 5570 nM; GI50 (SK-MEL-28 melanoma): 1220 nM; TGI (SK-MEL-28 melanoma): > 50000 nM; GI50 (MOLT-4 leukemia): 275 nM; TGI (MOLT-4 leukemia): > 50000 nM; GI50 (SK-MEL-2 melanoma): 255 nM; TGI (SK-MEL-2 melanoma): 25200 nM; GI50 (LOX IMVI melanoma): 262 nM; TGI (LOX IMVI melanoma): 23700 nM; GI50 (SF-539 CNS): 171 nM; TGI (SF-539 CNS): 9070 nM; GI50 (NCI-H23 lung): 391 nM; TGI (NCI-H23 lung): > 50000 nM; GI50 (DU-145 prostate): 598 nM; TGI (DU-145 prostate): 17300 nM; GI50 (T-47D breast): 220 nM; TGI (T-47D breast): > 50000 nM; GI50 (TK-10 renal): 6660 nM; TGI (TK-10 renal): 45600 nM
